{"source": "patent US20170027896A1", "about": "“METHODS AND COMPOSITIONS FOR THE TREATMENT OF VASCULAR MALFORMATION” (IFOM - FONDAZIONE ISTITUTO FIRC DI ONCOLOGIA MOLECOLARE, priority 2014, published 2017)", "molecules": {"B1": {"name": "VE-cadherin (other, mouse, UniProt P55284 46-784, looked up)", "chain": "DWIWNQMHIDEEKNESLPHYVGKIKSNVNRQNAKYVLQGEFAGKIFGVDANTGNVLAYERLDREKVSEYFLTALIVDKNTNKNLEQPSSFTVKVHDINDNWPVFSHQVFNASVPEMSAIGTSVIRVTAVDADDPTVAGHATVLYQIVKGNEYFSIDNSGLIFTKIKNLDREKQAEYKIVVETQDALGLRGESGTATVMIRLEDINDNFPVFTQSTYTFSVPEDIRVGKPLGFLTVVDPDEPQNRMTKYSIMQGEYRDTFTIETDPKRNEGIIKPTKSLDYEVIQQYTFYIEATDPTIRYEYLSSTSGKNKAMVTINVLDVDEPPVFQRHFYHFKLPENQKKPLIGTVVAKDPDKAQRSIGYSIRKTSDRGQFFRITKQGNIYNEKELDRETYAWYNLTVEANELDSRGNPVGKESIVQVYIEVLDENDNPPEFAQPYEPKVCENAAQGKLVVQISATDKDVVPVNPKFKFALKNEDSNFTLINNHDNTANITVKYGQFNREHAKFHYLPVLISDNGVPSLTGTSTLTVGVCKCNEQGEFTFCEEMAAQAGVSIQALVAIFLCILTITVITLLIILRRRIRKQAHAHSKSALEIHEQLVTYDEEGGGEMDTTSYDVSVLNSVRGGSTKPLRSTMDARPAVYTQVQKPPRLAPGLHGGPREMATMIDVKKEEADNDGGGPPYDTLHIYGYEGAESIAESLSSLSTNSSDSDIDYDFLNDWGPRFKMLAELYGSDPQEELII", "notes": "Endogenous protein immunoprecipitated from endothelial cell extracts with VE-cadherin antibodies (IP: VE); also called Cdh5"}}, "key": {"[1]": {"test_system": "CCM3-knockout (KO) endothelial cells", "test": "Axin2 and S100a4 transcription in un-stimulated CCM3-knockout endothelial cells treated with Wnt pathway inhibitors", "assay_type": "cell-based, mouse", "conditions": "48 h, IWP2, IWP12 0.5, 2, 5 DM, Dkk1 0.5 uM", "experimental": "Drugs were added to confluent cells for 48 h before the indicated assays. Final concentrations for IWP2 and IWP12, both from Sigma-Aldrich, were: 0.5, 2, 5 DM. Drugs were dissolved in DMSO, control treatment (Vehicle) was 0.1% DMSO final concentration, as for drug treatment. Murine recombinant Dkk1 (R&D) was 0.5 DM on cells.\n(§1) RNA extraction was performed with RNeasy kits (74106; […]). The RNA (1 μg) was reverse transcribed with random hexamers (High Capacity cDNA Archive kits; Applied Biosystems). The cDNA was amplified with TaqMan gene expression assays (Applied Biosystems) using a 7900 HT thermocycler (ABI/Prism). For each sample, the expression levels were determined with the comparative threshold cycle (Ct) method, and normalized to the housekeeping genes encoding 18S and glyceraldehyde-3-phosphate dehydrogenase (GAPDH). For amplification, the following probes (Applied Biosystems) that have been validated to recognize the mouse transcripts in rtPCR were used: Axin2, Nkd1, Lef1, ccnd1, cMyc-Klf4, Ly6a, S100a4, Id1, Cdh2, Acta2, CD44. The probes to identify the CCM3 mRNA transcript were custom designed, as: forward, […] (SEQ ID No. 12); reverse, GCTCTGGCCGCTCAATCA (SEQ ID No. 13); reporter sequence, […] (SEQ ID No. 14)."}, "[2]": {"test_system": "CCM3-knockout endothelial cell line", "test": "rtPCR of b-catenin target gene and progenitor/EndMT markers in CCM3-knockout endothelial cell line", "assay_type": "cell-based, mouse", "conditions": "48 h; 135 mM sulindac sulfide, 125 mM sulindac sulfone, 200 mM silibinin, 250 mM salinomycin", "experimental": "In some experiments, endothelial cell lines from the lungs of CCM3-flox/flox mice (8-10 weeks old) were immortalized in culture through retroviral expression of polyoma middle T gene^60. […] These cells were then maintained in culture for up to 25 passages without detectable changes in the effects of this CCM3 ablation.\nDrugs were added to confluent cells for 48 h before the indicated assays. The final concentrations used were: […] (all from Sigma-Aldrich). As all of these were dissolved in DMSO, control treatment (vehicle) was 0.1% DMSO final concentration, as for drug treatment.\nas §1"}, "b-catenin": {"target": "T1, b-catenin (mouse, UniProt Q02248 2-781)", "T1 construct": "Endogenous protein in total cell extracts, co-immunoprecipitated with VE-cadherin antibodies; also called beta-catenin; β-catenin", "T1 sequence (looked up)": "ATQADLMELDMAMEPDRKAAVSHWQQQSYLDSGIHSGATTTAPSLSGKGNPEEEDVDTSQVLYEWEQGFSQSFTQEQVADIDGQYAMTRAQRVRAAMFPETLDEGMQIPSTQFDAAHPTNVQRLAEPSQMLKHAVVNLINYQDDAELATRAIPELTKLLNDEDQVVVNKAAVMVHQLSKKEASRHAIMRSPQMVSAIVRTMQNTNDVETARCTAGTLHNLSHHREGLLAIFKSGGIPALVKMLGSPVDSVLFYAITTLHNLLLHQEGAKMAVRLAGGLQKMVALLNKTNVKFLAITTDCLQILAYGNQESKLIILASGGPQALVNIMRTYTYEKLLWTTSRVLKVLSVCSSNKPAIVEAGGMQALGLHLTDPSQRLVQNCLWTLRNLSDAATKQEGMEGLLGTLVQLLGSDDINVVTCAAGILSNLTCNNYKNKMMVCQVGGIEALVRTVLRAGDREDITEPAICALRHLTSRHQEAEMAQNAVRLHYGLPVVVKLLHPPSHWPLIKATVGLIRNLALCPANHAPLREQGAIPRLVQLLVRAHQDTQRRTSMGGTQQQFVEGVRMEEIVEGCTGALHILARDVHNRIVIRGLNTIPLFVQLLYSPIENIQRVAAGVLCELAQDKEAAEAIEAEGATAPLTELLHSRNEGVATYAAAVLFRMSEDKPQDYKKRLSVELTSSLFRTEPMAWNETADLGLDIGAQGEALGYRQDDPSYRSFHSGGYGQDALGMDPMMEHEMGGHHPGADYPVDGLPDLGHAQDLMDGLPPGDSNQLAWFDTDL", "test": "co-immunoprecipitation with VE-cadherin antibodies and Western blot, murine endothelial cell line extracts"}}, "note": "“Also recorded” adds a separate entry of the source.", "data": [{"molecule": "Cc1ccc2nc(NC(=O)CSc3nc4c(c(=O)n3C)SC(C)C4)sc2c1", "note": "(stereo not shown) [IWP12]", "values": [{"measurement": "b-catenin-driven activation of Axin2 and S100a4 transcription", "setting": "[1]", "value": "not inhibited; also recorded: did not inhibit"}]}, {"molecule": "Cc1ccc2nc(NC(=O)CSc3nc4c(c(=O)n3-c3ccccc3)SCC4)sc2c1", "note": "[IWP2]", "values": [{"measurement": "b-catenin-driven activation of Axin2 and S100a4 transcription", "setting": "[1]", "value": "not inhibited; also recorded: did not inhibit"}]}, {"molecule": "CC[C@@H](C(=O)[C@@H](C)[C@@H](O)[C@H](C)[C@@H]1O[C@@H]([C@@H](CC)C(=O)O)CC[C@@H]1C)[C@H]1O[C@]2(C=C[C@@H](O)[C@]3(CC[C@@](C)([C@H]4CC[C@](O)(CC)[C@H](C)O4)O3)O2)[C@H](C)C[C@@H]1C", "note": "[salinomycin]", "values": [{"measurement": "inhibition of transcription of Axin2, Klf4 and S100a4 (rtPCR)", "setting": "[2]", "value": "significantly reduced only Axin2 and S100a4"}]}, {"molecule": "B1", "values": [{"measurement": "binding result", "setting": "b-catenin", "value": "binds"}]}]}
